The source of these data is patent publication US8067455B2, “Amino acid derived prodrugs of propofol, compositions, uses and crystalline forms thereof” (XenoPort, Inc., priority 2004, dated 2011).

Where two headings read alike, the source gives them in different places.

For data set [1] the following is noted: rats, oral dosing; cited from earlier work.
Data set [2] in a line: Solubility of compound (6) in water and PBS. In kind it is physicochemical. As to the method:
(§1) The hydrochloride (3.42 g, 9.89 mmol) was crystallized by dissolution in a mixture of ethanol and toluene (1/10 v/v, 110 mL) at 80° C. and the mixture allowed to cool to room temperature. Large needle-like crystals started to form after standing at room temperature for 48 h. The solution was filtered after standing for 7 days at room temperature. The product (6) was isolated as a white crystalline solid (2.7 g, 79% yield). ^1H-NMR (400 MHz, CD3OD): δ 7.16-7.24 (m, 3H), 4.81-4.85 (dd, J=12.4, 4.4 Hz, 1H), 4.59-4.63 (dd, J=12.0 Hz, 3.2 Hz, 1H), 4.45-4.49 (dd, J=4.4, 2.8 Hz, 1H), 2.98-3.02 (m, 2H), 1.18-1.19 (d, J=7.2 Hz, 12H). MS (ESI) m/z 310.3 (M+H)^+. Melting point: 188.1-189.1° C.

Data set [3] is described as follows: Stability at room temperature determined by LC/MS. In kind it is physicochemical. The settings on record: after three months. As to the method: as §1

As for `CC(C)c1cccc(C(C)C)c1O` [propofol, 2,6-diisopropylphenol], the “administered drug undergoing first pass metabolism” value in data set [1] was “approximately 90%”.

As usually defined, the solubility is the concentration that dissolves in the medium under given conditions. For `CC(C)c1cccc(C(C)C)c1OC(=O)OC[C@H](N)C(=O)O.Cl` [compound (6), (S)-2-Amino-3-(2,6-Diisopropylphenoxy-carbonyloxy)-Propanoic Acid Hydrochloride], the solubility in data set [2] (phosphate buffered saline (PBS), aqueous buffer, read-out: solubility in phosphate buffered saline (PBS)) came to 8180 µg/mL; in data set [2] (water, read-out: solubility in water) it was 7580 µg/mL. In addition, the “degradation as an aqueous solution” value in data set [3] (aqueous solution) is on record as “no degradation”. In data set [3] (solid), the “degradation as a solid” value was “no degradation”.
